Measured values reported in paper PMC11053914 (Viruses, 2024).
Peptide text beside a SMILES is read from it. * marks the point of attachment. Cbz = O=C(OCc1ccccc1)*

Tests used:
[1] = system: A3G (Vif-mediated degradation); assay: A3G level in the presence of Vif by Western blotting in HEK293T cells; format: cell-based, human; details: proteasome inhibitor positive control; A3G without Vif = 100%, Vif alone 31%
[2] = system: HIV-1 NL4-3 packaged with A3G; format: cell-based; details: peptides at 25, 50 or 100 μM; DMSO group set to 100%; TZM-bl read-out
[3] = system: CEM-SS cells; assay: Growth of infected CEM-SS cells, trypan blue staining; format: cell-based; details: infected cells with 50 μM peptide, trypan blue staining every other day
[4] = system: CEM-SS cells; assay: Cytotoxicity assay (CellTiter-Glo) in CEM-SS cells; format: cell-based; details: 2-fold dilutions from 100 μM, 48 h, DMSO group = 100%
[5] = system: CEM cells; assay: Cytotoxicity assay (CellTiter-Glo) in CEM cells; format: cell-based; details: 2-fold dilutions from 100 μM, 48 h, DMSO group = 100%
[6] = system: CEM cells; assay: Growth of infected CEM cells, trypan blue staining; format: cell-based; details: infected cells with 50 μM peptide, trypan blue staining every other day
[7] = target: wild-type (WT) Vif displayed on yeast cells (HIV-1) (UniProt P69723); assay: flow cytometry on cells
Sequence of UniProt P69723 (P69723 whole entry): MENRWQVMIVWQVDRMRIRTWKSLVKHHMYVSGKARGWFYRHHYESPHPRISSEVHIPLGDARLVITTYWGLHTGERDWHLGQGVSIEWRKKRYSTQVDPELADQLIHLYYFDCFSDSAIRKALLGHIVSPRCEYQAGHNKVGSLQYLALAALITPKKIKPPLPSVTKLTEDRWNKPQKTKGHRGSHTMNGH

Compound: CC(C)C[C@@H](C=O)NC(=O)[C@H](CC(C)C)NC(=O)[C@H](CC(C)C)NC(=O)OCc1ccccc1 [MG132] (Cbz-Leu-Leu-Leu-aldehyde)
- A3G level in the presence of Vif [1]: 73%

Compound: CC[C@H](C)[C@H](NC(=O)[C@H](CCSC)NC(=O)[C@@H](NC(=O)[C@H](CCC(=O)O)NC(C)=O)C(C)C)C(=O)N[C@H](C(=O)N[C@@H](Cc1c[nH]c2ccccc12)C(=O)N[C@@H](CCC(=O)O)C(=O)N[C@H](C(=O)N[C@@H](CC(=O)O)C(=O)N[C@@H](CCCNC(=N)N)C(=O)N[C@@H](CCSC)C(=O)N[C@@H](CCCNC(=N)N)C(=O)N[C@H](C(=O)N[C@H](C(=O)N[C@H](C(N)=O)[C@@H](C)O)[C@@H](C)O)[C@@H](C)CC)C(C)C)C(C)C [VMP-6] (Ac-EVMIVWEVDRMRITT-NH2)
- effect on infectivity of the A3G-containing viruses [2]: did not affect the viral infectivity

Compound: CC[C@H](C)[C@H](NC(=O)[C@H](C)NC(=O)[C@H](CC(C)C)NC(=O)CNC(C)=O)C(=O)N[C@H](C(=O)N[C@H](C(=O)N[C@@H](Cc1ccc(O)cc1)C(=O)N[C@@H](Cc1c[nH]c2ccccc12)C(=O)NCC(=O)N[C@@H](CC(C)C)C(=O)N[C@@H](Cc1c[nH]cn1)C(=O)N[C@H](C(=O)NCC(=O)N[C@@H](CCC(=O)O)C(=O)N[C@@H](CCCNC(=N)N)C(=O)NCC(N)=O)[C@@H](C)O)[C@@H](C)O)[C@@H](C)O [VMP-63]
- growth of CEM-SS cells [3]: not affected
- cytotoxicity on CEM-SS cells [4]: almost no cytotoxicity
- cytotoxicity on CEM cells [5]: almost no cytotoxicity
- growth of CEM cells [6]: not affected

Compound: CC(=O)N[C@@H](Cc1c[nH]c2ccccc12)C(=O)NCC(=O)N[C@@H](CC(C)C)C(=O)N[C@@H](Cc1c[nH]cn1)C(=O)N[C@H](C(=O)NCC(=O)N[C@@H](CCC(=O)O)C(=O)N[C@@H](CCCNC(=N)N)C(=O)NCC(N)=O)[C@@H](C)O [VMP-70] (Ac-WGLHTGERG-NH2)
- effect on infectivity of the A3G-containing viruses [2]: did not affect the viral infectivity

Compound: CC[C@H](C)[C@H](NC(=O)[C@H](C)NC(=O)[C@H](CO)NC(=O)[C@H](CC(N)=O)NC(=O)[C@H](CO)NC(=O)[C@H](Cc1ccccc1)NC(=O)[C@H](CS)NC(=O)[C@H](CC(=O)O)NC(=O)[C@H](Cc1ccccc1)NC(=O)[C@H](Cc1ccc(O)cc1)NC(=O)[C@H](Cc1ccc(O)cc1)NC(=O)[C@H](CC(C)C)NC(=O)[C@H](CCCNC(=N)N)NC(C)=O)C(N)=O [VMP-108]
- growth of CEM-SS cells [3]: not affected
- cytotoxicity on CEM-SS cells [4]: almost no cytotoxicity
- cytotoxicity on CEM cells [5]: almost no cytotoxicity
- growth of CEM cells [6]: not affected

Compound: CC(=O)N[C@@H](Cc1ccc(O)cc1)C(=O)N[C@@H](Cc1ccccc1)C(=O)N[C@@H](CC(=O)O)C(=O)N[C@@H](CS)C(=O)N[C@@H](Cc1ccccc1)C(=O)N[C@@H](CO)C(=O)N[C@@H](CC(N)=O)C(=O)N[C@@H](CO)C(=O)N[C@@H](C)C(=O)N[C@H](C(=O)N[C@@H](CCCNC(=N)N)C(=O)N[C@@H](CCCCN)C(=O)N[C@H](C(N)=O)C(C)C)[C@@H](C)O [VMP-111] (Ac-YFDCFSNSATRKV-NH2)
- effect on infectivity of the A3G-containing viruses [2]: did not affect the viral infectivity

Compound: CBFβ protein, purified (from UniProt Q13951 1-182) (natural protein)
- FITC-positive cells [7]: 0.076%
